Test results published in US11958842B2, “Substituted phenazines and methods of treating cancer and bacterial diseases” (Adjutec Pharma AS, priority 2016, dated 2024).
In brackets after ≈: the same amount, converted by molar mass. Where two headings read alike, the source gives them in different places.

Key:
[1] = Parallel artificial membrane permeability assay (PAMPA); conditions: for Permeability: PAMPA class by ranges of Bennion et al.; for LogPeff: PAMPA, 50 μM in PBS, room temperature, five hours
Experimental: The Corning Gentest™ pre-Coated parallel artificial membrane permeability assay PAMPA Plate System was from Cording Discovery Labware (Bedford, USA). The compounds were tested in room temperature at 50 μM using PBS as buffer. A total of 300 μl of the compound solution was added to each well of the donor plate, and 200 μl of PBS was added to the receiver filter plate. After incubation for five hours, 50 μl of the donor or acceptor well were injected into a reversed phase HPLC column (Kromasil 100-5 C18 150-4.6 mm, Akzo Nobel, Sweden) connected to a Merck-Hitachi LaChrome HPLC-system (VWR, WestChester, USA) with a L-7455 diode array detector. Mobile phase A was 0.05% aqueous TFA, and mobile phase B was acetonitrile. The flow rate was 1.6 ml/min and compounds eluted between 1 and 4.5 minutes was eluted during a 6.5 min gradient from 90:10% mobile phase A:B to 0:100% mobile phase A:B. The ratio of the compound concentrations in the donor and acceptor compartment was calculated after integration of the peaks at 285 nm. Peff was calculated as described in [Bennion B J, Be N A, McNerney M W, Lao V, Carlson E M, Valdez C A, et al. Predicting a Drug's Membrane Permeability: A Computational Model Validated With in Vitro Permeability Assay Data. The journal of physical chemistry B. 2017; 121(20):5228-37.]. Membrane permeability were classified by the range defined by Bennion et al., allowing for us to divide the compounds into four groups, compounds with high permeability (LogPeff>−5.33), intermediate permeability (LogPeff>−5.66 and <−5.33), low permeability (LogPeff>−6.14 and <−5.66) impermeable (LogPeff<−6.14).

hepG2 = experiment: Cytotoxicity (Example 73, Table 2); format: cell-based; conditions: Homo sapiens, read-out: EC50 (μM) hepG2
[2] = tested on: normal rat kidney epithelial (NRK) cells; experiment: Cytotoxicity, WST-1 and nuclear morphology (Example 73); format: cell-based
Experimental: (§1) All cell culturing media and serum were from Sigma-Aldrich (St. Louis, Mo., USA). Product Nos. are given in parentheses. The human acute myeloid leukemia cell line MOLM-13 was cultured in RPMI medium (R5886) enriched with […] (F7524) and 0.2 mM L-glutamine (G7513). The normal rat kidney epithelial (NRK) and the rat cardiomyoblast (H9c2) cells were cultured in DMEM medium (D6429) enriched with 10% fetal bovine serum (F7524). All cell lines were additionally supplemented with 100 IU/mL penicillin and […] (P0781). The cells were cultured in a humidified atmosphere either under 2% or 20% O2 at 37° C.
(§2) All analogues were dissolved in DMSO (D5879, Sigma-Aldrich) at concentrations between 2.5 and 20 mM before testing. For cytotoxic testing, the MOLM-13 cells were seeded as 20,000 cells/well, while NRK and H9c2 cells were seeded as 5,000 cells/well in 96-well Microplates (#167008, Thermo Scientific™ Nunc™ MicroWell™) with 100 μL medium/well. The cells were exposed to various concentrations of iodinin or its analogues for 24 hrs before the cell proliferation reagent WST-1 was used to assess the viability, in accordance with the manufacturer's instructions (11644807001, Roche Diagnostics, Sigma-Aldrich). The cells were next fixed in 2% buffered formaldehyde (pH 7.4) with the DNA-specific dye Hoechst 33342 (Polysciences Inc.) and assessed for cell death by UV-microscopy based on nuclear morphology. The highest concentration of analogue corresponded to 1% of DMSO, which alone gave less than 7% cell death as judged by nuclear morphology.
(§3) EC50 values were determined by analyses of WST-1 signal results as well as microscopic evaluation of cell death by four-parameter regression analyses using the SigmaPlot software (Systat Software inc. San Jose, Calif.):
(§4) [formula] where Y is the response (WST-1 signal or percent apoptosis), min and max are minimum and maximum response, X is concentration of analogue, EC50 equals the point of inflection, i.e. the point that gives half of maximum response, and h is the Hill's slope of the curve. The two methods gave consistent response curves for each analogue. In the case of Tirapazamine, where its colour interfered with the WST-1 signal, only microscopic evaluation of Hoechst stained cells was used in order to calculate its EC50 values.

[3] = tested on: rat cardiomyoblast (H9c2) cells; experiment: as above; format: cell-based; conditions: read-out: EC50 (μM) H9c2 19% O2
Experimental: as §1, §2, §3, §4

[4] = tested on: human acute myeloid leukemia cell line MOLM-13; experiment: as above; format: cell-based
Experimental: as §1, §2, §3, §4

Molm13 cells = experiment: Anti-AML activity, WST-1 viability (Example 72); format: cell-based; conditions: Homo sapiens, MOLM-13, 24 h
Experimental: Dry powder of analogs were dissolved in DMSO. IPC-18 rat AML cells (Lacaze, N. et al. Leuk. Res. 1983, 7, 145.) were cultured in DMEM medium (Sigma-Aldrich, St. Louis, Mo., USA) supplemented with 10% horse serum (Invitrogen, Carlsbad, Calif., USA), and antibiotics (50 U/mL of penicillin and 0.05 mg/mL streptomycin). Molm13 (Matsuo, Y. et al. Leukemia 1997, 11, 1469.) cells were cultured in RPMI supplemented with antibiotics (50 U/mL of penicillin and 0.05 mg/mL streptomycin) and 10% fetal bovine serum (FBS, Invitrogen, Carlsbad, Calif.) and kept in exponential growth before the experiments. Dilution series of iodinin analogs were added to medium and cell suspension added to reach a final cell concentration of 150 000 cells/ml in 0.1 mL in a 96 well tissue culture plate. […] The cells were incubated with the iodinin analogs for 22 h before WST-1 was added according to the manufacturers protocol, and the cells incubated further in 2 h. Mitochondrial conversion of WST-1 to its colored metabolite was measured by a plate reader at 450 nm, with 620 nm as the reference wavelength. The cells were next fixed by adding 4% buffered formaldehyde (PBS, pH 7.4, supplemented with 0.01 mg/mL Hoechst 33342 for nuclear visualization) to the cell suspension at 1:1 (v/v) ratio (final concentration of formaldehyde:[…]). The cells' nuclear and surface morphology were examined microscopically and results compared with the WST-1 viability assay. The results given in Table I are based on WST-1 data.

[5] = tested on: methicillin-resistant S. aureus MRSA A4-37; experiment: Microbroth dilution MIC; format: cell-based; conditions: compound alone
Experimental: (§5) Day 1: • Plate bacterial strain(s) on appropriate media: • Gram-negative bacteria with ESBLs or carbapenemases: green agar plates with 100 mg/L ampicillin • Gram-negative bacteria without β-lactamases: green agar plates • Gram-positive bacteria (Staphylococci and Enterococci): blood agar plates • Incubate o.n. at 37° C.
(§6) Prepare the Bacterial Inoculum: • Prepare a 0.5 McFarland suspension of bacteria in 0.85% NaCl. (Should be used within 15 min of preparation). • Dilute the 0.5 McFarland suspension 1:100 into MH broth.
(§7) Check the inoculum by diluting the prepared bacterial suspension 1:100 (10 μl bacterial suspension+990 μl 0.85% NaCl). Plate 10 μl of the dilution on MH agar plates (×2). Incubate o.n. at 37° C., count the colonies and calculate the final CFU/ml inoculum in the plate by multiplying the average number of colonies with 10000 and divide by 2. The final inoculum should be between 3-7×10^5 CFU/ml. • Add 50 μl of the prepared bacterial suspension to each well in the microtiter plate except negative growth control.
(§8) Preparation of Compounds/Antibiotics • Calculate the desired concentration-range and volume of the compounds/antibiotics in the assay. For antibiotics this will depend on the MIC to meropenem of the bacterial strains to be tested. Dilute the stock solution in MH broth. Make subsequent 2-fold dilutions in MH broth of the desired concentrations if a concentration range is to be tested (remember the extra dilution factor in the assay plate). Always include extra volume for pipetting. Take into consideration stock solutions that are made in buffers that have an effect on bacterial growth (e.g. DMSO).
(§9) This experimental design was used for the results in Tables 4 and 5 below. In Table 4, inhibitor concentration dependency on the MIC of meropenem was studied.

[6] = tested on: vancomycin-resistant E. faecium vanA A1-22; experiment: Microbroth dilution MIC; format: cell-based; conditions: compound alone
Experimental: as §5, §6, §7, §8, §9

[7] = Rattus norvegicus, 24 h, read-out: EC50 (μM) NRK 2% O2, NRK, 2% O2, 24 hours of incubation
[8] = Rattus norvegicus, 24 h, read-out: EC50 (μM) NRK 19% O2, NRK, 19% O2, 24 hours of incubation
[9] = H9c2, 19% O2, 24 hours of incubation
[10] = MOLM-13, 2% O2, 24 hours of incubation, read-out: EC50 (μM) MOLM-13 2% O2
[11] = MOLM-13, 19% O2, 24 hours of incubation, read-out: EC50 (μM) MOLM-13 19% O2
[12] = read-out: EC50 (μM) NRK 2% O2, 2% O2, 24 hours of incubation
[13] = read-out: EC50 (μM) NRK 19% O2, 19% O2, 24 hours of incubation

SMILES | LogPeff [1] | EC50 (hepG2; HepG2, 24 h) | EC50 [2, 7] | EC50 [2, 8] | EC50 [3, 9] | EC50 [4, 10] | EC50 [4, 11] | MIC A4-37 S. aureus MRSA [5] | MIC A1-22 E. faecium vanA [6] | further results
CCOC(=O)COc1cccc2c1[n+]([O-])c1cc(Cl)c(Cl)cc1[n+]2[O-] [Example 6c, 7,8-dichloro-1-(2-ethoxy-2-oxoethoxy)phenazine 5,10-dioxide] | −5.42 |  |  |  |  |  |  |  |  | Permeability [1]: Intermediate/high; EC50 (hepG2; hepG2, 24 hours of incubation): 12 µM; EC50 ([2]; Rattus norvegicus, 2% O2, 24 hours of incubation, read-out: EC50 (μM) NRK 2% O2): 4.7 ± 0.09 µM; EC50 ([2]; Rattus norvegicus, 19% O2, 24 hours of incubation, read-out: EC50 (μM) NRK 19% O2): 3.1 ± 0.02 µM; EC50 ([3]; Rattus norvegicus, H9c2, 19% O2, 24 hours of incubation): 1.3 ± 0.2 µM; EC50 ([4]; Homo sapiens, MOLM-13, 2% O2, 24 hours of incubation, read-out: EC50 (μM) MOLM-13 2% O2): 0.38 ± 0.04 µM; EC50 ([4]; Homo sapiens, MOLM-13, 19% O2, 24 hours of incubation, read-out: EC50 (μM) MOLM-13 19% O2): 0.41 ± 0.05 µM
COc1cccc2c1[n+]([O-])c1cccc(OC(=O)N3CCN(C)CC3)c1[n+]2[O-] [Example 8b, 1-methoxy-6-((4-methylpiperazine-1-carbonyl)oxy)phenazine 5,10-dioxide] | −5.77 | 90 µM | 39 ± 4.2 µM | 26 ± 2.1 µM | 26 ± 0.9 µM | 0.98 ± 0.08 µM | 1 ± 0.06 µM |  |  | 
CN1CCN(C(=O)Oc2cccc3c2[n+]([O-])c2ccccc2[n+]3[O-])CC1 [Example 8c, 1-((4-methylpiperazine-1-carbonyl)oxy)phenazine 5,10-dioxide] |  |  | 37 ± 1.9 µM | 25 ± 0.2 µM | 36 ± 11 µM | 1.9 ± 0.05 µM | 1.5 ± 0.18 µM | < 4 mg/L | 8 mg/L (≈ 22.6 µM) | IC50 (Molm13 cells; read-out: Molm 13 IC50 20% O2): 0.35 µM
CN1CCN(C(=O)Oc2cccc3c2[n+]([O-])c2cc4ccccc4cc2[n+]3[O-])CC1 [Example 8e, 1-((4-methylpiperazine-1-carbonyl)oxy)benzo[b]phenazine 5,12-dioxide] | −5.38 | 45 µM |  |  |  |  |  |  |  | Permeability [1]: Intermediate/high; EC50 [2, 12]: 15 ± 1.8 µM; EC50 [2, 13]: 10 ± 0.9 µM; EC50 ([3]; Rattus norvegicus, H9c2, 24 h): 3.2 ± 0.1 µM; EC50 ([4]; Homo sapiens, MOLM-13, 24 h, read-out: EC50 (μM) MOLM-13 2% O2): 0.32 ± 0.06 µM; EC50 ([4]; Homo sapiens, MOLM-13, 24 h, read-out: EC50 (μM) MOLM-13 19% O2): 0.34 ± 0.04 µM
CCN(CC)C(=O)Oc1cccc2c1[n+]([O-])c1cccc(O)c1[n+]2[O-] [Example 8i, 1-((diethylcarbamoyl)oxy)-6-hydroxyphenazine 5,10-dioxide] |  |  |  |  |  |  |  | < 4 mg/L | 8 mg/L (≈ 23.3 µM) | IC50 (Molm13 cells; read-out: Molm 13 IC50 2% O2): 0.74 µM; IC50 (Molm13 cells; read-out: Molm 13 IC50 20% O2): 0.76 µM
COc1cccc2c1[n+]([O-])c1cccc(OC(=O)N(C)C)c1[n+]2[O-] [Example 8m, 1-((dimethylcarbamoyl)oxy)-6-methoxyphenazine 5,10-dioxide] |  |  | 29 ± 0.7 µM | 22 ± 1.7 µM | 35 ± 1.8 µM | 1.7 ± 0.09 µM | 1.9 ± 0.07 µM | < 4 mg/L | 63 mg/L (≈ 191 µM) | 
COc1cccc2c1[n+]([O-])c1ccccc1[n+]2[O-] [Example 18, 1-methoxyphenazine 5,10-dioxide] |  |  |  |  |  |  |  | < 2 mg/L | 32 mg/L (≈ 132 µM) | 
CN1CCN(C(=O)Oc2cccc3c2[n+]([O-])c2cc(Br)c(Br)cc2[n+]3[O-])CC1 [Example 59, 7,8-dibromo-1-((4-methylpiperazine-1-carbonyl)oxy)phenazine 5,10-dioxide] |  | 40 µM |  |  | 2.2 ± 0.53 µM | 0.23 ± 0.03 µM | 0.41 ± 0.04 µM |  |  | EC50 [2, 12]: 7.6 ± 0.6 µM; EC50 [2, 13]: 6.2 ± 0.02 µM
